Data: patent US20240277861A1, “ANTI-HEPATITIS B VIRUS AGENT TARGETING HOST FACTOR LIPG” (PUROTECH BIO, INC., priority 2021, published 2024)

Experiments:
[1] = test system: HBV; assay: HBV attachment, uptake and replication in Huh7-LIPG cells; assay type: cell-based; conditions: Huh7-LIPG cells infected with HBV, 3 days after treatment
Protocol: (§1) HBV-DNA and cccDNA were quantified by qPCR as described below. Total DNA was extracted from cells using DNeasy Blood & Tissue Kit (Qiagen, Hilden, Germany). HBV-DNA was quantified by qPCR analysis as previously reported (Honda. M. et al., J. Infect. Dis., 213, 1096-1106, 2016). The extracted DNA (50 ng) was treated with 10 U of Plasmid safe DNase I (Epicentre, Madison. WI) at 37° C. for 60 minutes and then treated at 70° C. for 30 minutes for DNase inactivation, cccDNA was quantified by qPCR analysis as previously reported (Honda, M. et al., J. Infect. Dis. 213, 1096-1106, 2016). Quantitative RT-PCR was performed as described below. The GenElute™ Mammalian Total RNA Miniprep Kit (Sigma-Aldrich) was used for extraction of total RNA, and the High Capacity cDNA Reverse Transcription Kit (Applied Biosystems, Carlsbad, CA) was used for cDNA synthesis. The 7500 Real Time PCR System (Applied Biosystems) was used for RT-PCR. Primers 5′-[…]-3′ (SEQ ID NO: 31) and 5′-[…]-3′ (SEQ ID NO: 32) and a probe 5′-FAM-[…]-MGB-3′ (SEQ ID NO: 33) were used for pregenomic RNA. Primer pairs and probes for LIPG, NTCP. 18SrRNA, and ACTB were obtained from the TaqMan assay reagents library.
When the abundance of LIPG expression was compared among different liver cell lines. […] HepG2-NTCP-C4 cells with overexpression of FLAG-LIPG (HepG2-NTCP-C4-LIPG cells) were established (FIG. 2B), and the attachment and uptake of HBV into cells were assayed in the resulting cells. Heparin, which has been reported to inhibit HBV attachment (Schulze. A. et al., Hepatology 46: 1759-1768, 2007), and heparanase, an endo-β-D-glucuronidase that cleaves the heparan sulfate side chain in heparan sulfate proteoglycans (HSPGs) (Bame, KJ. Glycobiology,11: 91R-98R,2001), were used as control compounds. […] HBV attachment was detected by qPCR of HBV-DNA at 3 hours after HBV inoculation at 4° C. in the presence or absence of the compound (heparin or heparanase). […]

[2] = test system: HBV; assay: HBV attachment and uptake assay in HepG2-NTCP-C4-LIPG cells; assay type: cell-based; conditions: concentration-dependent
Protocol: as §1
When the abundance of LIPG expression was compared among different liver cell lines. […] HepG2-NTCP-C4 cells with overexpression of FLAG-LIPG (HepG2-NTCP-C4-LIPG cells) were established (FIG. 2B), and the attachment and uptake of HBV into cells were assayed in the resulting cells. Heparin, which has been reported to inhibit HBV attachment (Schulze. A. et al., Hepatology 46: 1759-1768, 2007), and heparanase, an endo-β-D-glucuronidase that cleaves the heparan sulfate side chain in heparan sulfate proteoglycans (HSPGs) (Bame, KJ. Glycobiology,11: 91R-98R,2001), were used as control compounds. Cells (HepG2-NTCP-C4-LIPG cells and HepG2-NTCP-C4 control cells) were pretreated with these compounds for 1 hour and then with HBV at 4° C. for 3 hours to allow HBV to attach the cells, washed to wash out HBV, and further incubated at 37° C. for 12 hours to detect uptake of HBV (FIG. 2C). In addition, the cells were further cultured in a conventional culture medium for 3 days after HBV inoculation to detect HBV DNA and cccDNA in the cells (FIG. 2C). HBV attachment was detected by qPCR of HBV-DNA at 3 hours after HBV inoculation at 4° C. in the presence or absence of the compound (heparin or heparanase). HBV attachment (FIG. 2D), uptake (FIG. 2E), and replication of HBV DNA and cccDNA (FIGS. 2F and 2G) were all increased in the HepG2-NTCP-C4-LIPG cells compared to the HepG2-NTCP-C4 control cells.
Next, the effect of a LIPG inhibitor (GSK-264220A) on HBV attachment and uptake was examined. […] At the same time, this inhibitor had no effect on HepG2-NTCP-C4 control cells.

[3] = test system: HBV-cccDNA; conditions: Patent Document 1; cited from earlier work
[4] = test system: HBV; assay: HBV attachment and uptake assay in HepG2-NTCP-C4 cells; assay type: cell-based; conditions: HepG2-NTCP-C4 control cells
Protocol: as §1, with “18SrRNA, and ACTB were obtained from the TaqMan assay reagents library.” left out
When the abundance of LIPG expression was compared among different liver cell lines. […] HBV attachment was detected by qPCR of HBV-DNA at 3 hours after HBV inoculation at 4° C. in the presence or absence of the compound (heparin or heparanase). […]

[5] = test system: HBV; conditions: in vitro cell system; cited from earlier work
[6] = test system: LIPG-mediated HBV attachment and entry (preS1 peptide) in PXB cells; assay: Uptake of TMR-labeled preS1 peptide into PXB cells (confocal microscopy); assay type: cell-based, human; conditions: PXB cells treated with FLAG-LIPG 3 hours
Protocol: FIG. 22-1 The effect of LIPG to promote HBV entry into cells and the effect of a LIPG-binding peptide and Netrin-1 to inhibit HBV entry into cells. A: PXB cells were mixed with a purified form of FLAG-LIPG and incubated for 3 hours. The resulting cells were mixed with a preS1 peptide fluorescently labeled with TMR (tetramethylrhodamine) and incubated for 30 minutes, and then observed with a confocal microscope. The fluorescence of the preS1 peptide was detected, and the fluorescence intensity was normalized to the DAPI fluorescence intensity. p<0.05. B: PXB cells were treated with 100 nM LIPG-binding peptide LIPH4-23S or LIPH4-NTNBS for 15 hours, and a purified form of FLAG-LIPG was added thereto, followed by incubation for 3 hours. The resulting cells were mixed with a preS1 peptide fluorescently labeled with TMR and incubated for 30 minutes, and then observed with a confocal microscope. The fluorescence of the preS1 peptide was detected, and the fluorescence intensity was normalized to the DAPI fluorescence intensity. *:p<0.05. C: PXB cells were mixed with Netrin-1 and incubated for 3 hours. […] The fluorescence of the preS1 peptide was detected, and the fluorescence intensity was normalized to the DAPI fluorescence intensity. *:p<0.05. […] The fluorescence of the preS1 peptide was detected, and the fluorescence intensity was normalized to the DAPI fluorescence intensity. […]

[7] = target: T1, binding between preS1 and heparan sulfate enhanced by LIPG (Homo sapiens, UniProt Q9Y5X9); assay: Plate assay of binding between preS1 peptide and immobilized heparan sulfate with FLAG-LIPG; conditions: 10, 25, or 50 fmol of FLAG-LIPG per well
T1 construct: FLAG
T1 sequence (Q9Y5X9 21-500): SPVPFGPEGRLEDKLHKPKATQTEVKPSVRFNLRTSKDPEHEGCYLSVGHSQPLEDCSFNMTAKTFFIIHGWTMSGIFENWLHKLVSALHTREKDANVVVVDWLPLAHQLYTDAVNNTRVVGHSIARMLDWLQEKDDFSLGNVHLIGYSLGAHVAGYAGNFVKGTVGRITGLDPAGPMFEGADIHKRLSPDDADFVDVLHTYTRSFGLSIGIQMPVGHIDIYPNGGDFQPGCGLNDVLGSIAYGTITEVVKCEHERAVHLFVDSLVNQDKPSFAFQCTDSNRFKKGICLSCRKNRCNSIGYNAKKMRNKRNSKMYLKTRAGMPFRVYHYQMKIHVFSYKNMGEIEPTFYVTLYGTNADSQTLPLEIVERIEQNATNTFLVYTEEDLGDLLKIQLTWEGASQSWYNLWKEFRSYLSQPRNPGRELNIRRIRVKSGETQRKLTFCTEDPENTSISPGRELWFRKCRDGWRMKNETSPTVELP
Protocol: FIG. 22-2 The effect of LIPG to promote HBV entry into cells and the effect of a LIPG-binding peptide and Netrin-1 to inhibit HBV entry into cells. E: A biotin-labeled form of heparan sulfate was added to a streptavidin-coated 96 well plate and left overnight at 4° C. to allow the heparan sulfate to bind to the plate. This plate was washed with TBS, and 10, 25, or 50 fmol of FLAG-LIPG was then added to each well to allow the reaction to proceed at room temperature for 2 hours. After the plate was washed, 10 or 100 nmol of LIPG-binding peptide LIPH4-NTNBS, LIPH4-23S, LIPH4-NTNBSA, or LIPH4-23SA was added to each well to allow the treatment to proceed at room temperature for 1 hour. Subsequently, the plate was washed, and 0.1 nmol of preS1-TMR was added to each well to allow the treatment to proceed at room temperature for another 1 hour. The plate was washed and then placed in a plate reader to measure the fluorescence of TMR.
Furthermore, PXB cells treated with Netrin-1 were further treated with FLAG-LIPG, and the uptake of the preS1 peptide was examined, to find that the enhancement of the uptake of the preS1 peptide by FLAG-LIPG was suppressed by Netrin-1 (FIG. 22D). In addition, a biotin-labeled heparan sulfate was immobilized on a streptavidin-coated plate and the preS1 peptide was added thereto to study the binding between the preS1 region of HBV and heparan sulfate present on the cell surface.

Cc1oc(S(=O)(=O)N2CCCCC2)cc1NC(=O)Nc1ccccc1 [GSK-264220A]
LIPG-mediated increase in HBV replication (cccDNA) [1]: reduced HBV replication | HBV attachment (HBV-DNA) ([2]; 3 hours after HBV inoculation at 4° C.): inhibited | HBV uptake (HBV-DNA) ([2]; 12 hours after being recultured at 37° C.): inhibited | HBV-cccDNA [3]: effective in reducing HBV-cccDNA | HBV attachment and uptake [4]: no effect

COc1cc2ncnc(Nc3ccc(F)c(Cl)c3)c2cc1OCCCN1CCOCC1 [gefitinib]
HBV infection [5]: reduces HBV infection

B1: FLAG-LIPG: purified form of FLAG-tagged LIPG added to PXB cells or plate (protein)
chain: SPVPFGPEGRLEDKLHKPKATQTEVKPSVRFNLRTSKDPEHEGCYLSVGHSQPLEDCSFNMTAKTFFIIHGWTMSGIFENWLHKLVSALHTREKDANVVVVDWLPLAHQLYTDAVNNTRVVGHSIARMLDWLQEKDDFSLGNVHLIGYSLGAHVAGYAGNFVKGTVGRITGLDPAGPMFEGADIHKRLSPDDADFVDVLHTYTRSFGLSIGIQMPVGHIDIYPNGGDFQPGCGLNDVLGSIAYGTITEVVKCEHERAVHLFVDSLVNQDKPSFAFQCTDSNRFKKGICLSCRKNRCNSIGYNAKKMRNKRNSKMYLKTRAGMPFRVYHYQMKIHVFSYKNMGEIEPTFYVTLYGTNADSQTLPLEIVERIEQNATNTFLVYTEEDLGDLLKIQLTWEGASQSWYNLWKEFRSYLSQPRNPGRELNIRRIRVKSGETQRKLTFCTEDPENTSISPGRELWFRKCRDGWRMKNETSPTVELPDYKDDDDK
preS1 peptide present in the cells [6]: increased by FLAG-LIPG in a concentration-dependent manner | binding between preS1 and heparan sulfate (TMR fluorescence) [7]: enhanced by FLAG-LIPG in a concentration-dependent manner
